In patent US5028586A, “Insulin derivatives and pharmaceutical preparations containing these derivatives” (Novo Norkisk A/S, priority 1985, dated 1991):

Test system: guinea pigs
Test: Protracted hypoglycemia in guinea pigs after subcutaneous injection of insulin derivative preparations
Assay type: in vivo
Method: 25 ml of a medium containing 1.6 %(w/v) of glycerol. 0.33 % (w/v) of m-cresol, 1/75 M of sodium phosphate, pH value 7.3, were prepared. The solution was sterilized by filtration. 1.5 mg of human insulin-B21-methyl ester, prepared as described in Example 1, were suspended in 1.0 ml of medium.
4.5 mg of human insulin-A17-methyl ester were dissolved in 2.7 ml of 0.015 M phosphoric acid. 21 mg of sodium chloride and 4.1 μliters of an aqueous solution of 152 mM zinc chloride were added. The solution was sterilized by filtration. The pH value of the solution was adjusted to 8.0 under aseptic conditions with a sterile aqueous solution of sodium hydroxide. The pH value of the solution was then readjusted to 7.3 with sterile hydrochloric acid, and rhombohedral crystals with a mean size of 10 μm were formed with gentle stirring at 21° C. The volume was adjusted to 3 ml with sterile water.
Moreover, a sterile solution of 3 ml of 13.5 mM phosphoric acid in admixture with 21 mg of sodium chloride and 9 μliters of m-cresol was prepared, and the pH value was adjusted to 7.3 with a sterile aqueous solution of sodium hydroxide. The two solutions were combined.
15 mg of human insulin-A4-gln, obtained as described in Example 5, was dissolved in 10 ml of a solution containing 13.5 mM phosphoric acid, 0.3 % m-cresol and 1.6 % glycerol. The solution was sterilized by filtration, and the pH value was adjusted to 9,0 with a sterile solution of sodium hydroxide. The pH value was readjusted to 8.2 with a sterile solution of hydrochloric acid, and human insulin-A4-gln crystallized as rhombohedral crystals with gentle stirring.

human insulin-A4-gln
protracted hypoglycemic effect compared with "Insulatard" (subcutaneous injection of crystalline suspension at 0.5 IU/kg, "Insulatard" at 0.5 IU/kg): nearly identical both in timing and amplitude

human insulin-A17-methyl ester
biological activity (area below the blood glucose curve) compared with human insulin (dosage 18 μg/kg, crystalline zinc preparation): nearly the same biological activity as human insulin
protracted insulin action compared with "Insulatard" (dosage 18 μg/kg, crystalline zinc preparation, comparator "Insulatard"): longer than the protracted action of the known injection preparation
hypoglycemia induced (dosage 18 μg/kg, crystalline zinc preparation, pH 7.3): strongly protracted hypoglycemia

human insulin-B21-methyl ester
protracted insulin action compared with "Insulatard" (subcutaneous, zinc-free preparation, comparator standard protamin insulin preparation "Insulatard"): comparable to the hypoglycemia observed after injection of a standard protamin insulin preparation
hypoglycemia after subcutaneous administration (subcutaneous, zinc-free suspension 1.5 mg in 1.0 ml medium, pH 7.3): protracted hypoglycemia was observed
